Reference: US20260035696A1, “COMBINATION TREATMENT FOR CANCER” (THE UNIVERSITY OF CHICAGO, priority 2022, published 2026)

Test system: IκBα phosphorylation and nuclear RELA in 3×KD BM-MDSCs
Experiment: Immunoblot of NF-κB signaling in 3×KD BM-MDSCs co-cultured with LPS
Assay type: cell-based, mouse
Settings: 3×KD (Adrb2, Metrnl, Smpdl3b) BM-MDSCs, LPS 5 min
Excerpt: FIGS. 15A-15I show YTHDF2 degrades Adrb2, Metrnl, and Smpdl3b transcripts and thereby activates NF-κB signaling in MDSCs. (FIG. 15A) MDSCs were sorted from MC38 tumors in WT, WT+IR, Ythdf2-cKO, Ythdf2-cKO+IR mice and subjected to qPCR analysis of Adrb2, Metrnl and Smpdl3b mRNA level. (FIG. 15B) Graphs showing enrichment of Adrb2, Metrnl and Smpdl3b mRNA in the YTHDF2-immunoprecipitated RNA fraction of bone marrow-derived MDSCs, determined by RIP-qPCR. (FIG. 15C) MDSCs were sorted from bone marrow-derived cells from WT and Ythdf2-cKO mice and were treated with actinomycin D. mRNA was collected at indicated time points after treatment and mRNA levels of Adrb2, Metrnl and Smpdl3b were measured by RT-qPCR. […] Three days after IR, the number of tumor-infiltrating CD45.1^+CD11b^+Ly6C^hi cells was determined. […] The attached cells on the transwell membrane were visualized under a light microscope and quantified. […] Three days after IR, the number of tumor-infiltrating Ccr2^+CD11b^+Ly6C^hi cells was determined. […]
FIGS. 29A-29M show YTHDF2 degrades Adrb2, Metrnl, and Smpdl3b transcripts and thereby activates NF-κB signaling in MDSCs. […] P values were calculated by a nonparametric Wilcoxon-Mann-Whitney test. […] Metrnl and Smpdl3b mRNA in the YTHDF2-immunoprecipitated RNA fraction of bone marrow-derived MDSCs, determined by RIP-qPCR. […]

Cc1ccc(S(=O)(=O)/C=C/C#N)cc1 [BAY 11-7082]
increase of IκBα phosphorylation and nuclear localization of RELA in knockdown MDSCs: prevented this increase
